From ChEMBL document CHEMBL1121390, “Rm values and structure-activity relationship of benzodiazepines” (J Med Chem, 1980)

How the values were obtained:
[1] = Partition coefficient (logP); format: physicochemical; details: octanol/water
Rattus norvegicus [2] = species on record: Rattus norvegicus; assay: ED50 value was reported as log1/C, which is the concentration required to reduce locomotor activity by 50% in rats; format: functional
Rattus norvegicus [3] = species on record: Rattus norvegicus; assay: Fourfod increase in lever pressing in punished rats, ED50 value reported as log1/C; format: functional
Rattus norvegicus [4] = species on record: Rattus norvegicus; assay: Halving of lever pressing in non punished rats, ED50 value reported as log 1/C; format: functional

Compound | logP [1] | Log 1/C (Rattus norvegicus [2]) | Log 1/C (Rattus norvegicus [3]) | Log 1/C (Rattus norvegicus [4])
CCOC1N=C(c2ccccc2)c2cc(Cl)ccc2N(CCOC(C)=O)C1=O (stereo not drawn) | 2.87 |  |  | 
O=C1C[N+]([O-])=C(c2ccccc2)c2ccccc2N1 | 1.46 |  |  | 
COc1cc(C(=O)OC2N=C(c3ccccc3)c3cc(Cl)ccc3NC2=O)cc(OC)c1OC (stereo not drawn) | 3.54 | 0.358 |  | 
CCN(CC)CCN1C(=O)C(O)N=C(c2ccccc2Cl)c2cc(Cl)ccc21 (stereo not drawn) | 2.26 |  |  | 
CCN(CC)CCN1C(=O)C(O)N=C(c2ccccc2F)c2cc(Cl)ccc21 (stereo not drawn) | 1.68 |  |  | 
CCN(CC)CCN1C(=O)C(O)N=C(c2ccccc2)c2cc(Cl)ccc21 (stereo not drawn) | 1.67 |  |  | 
CCOC1N=C(c2ccccc2)c2cc(Cl)ccc2N(CCCl)C1=O (stereo not drawn) | 3.95 | 0.193 |  | 
O=C1Nc2ccc(Cl)cc2C(c2ccccc2)=NC1O (stereo not drawn) [OXAZEPAM] |  | 1.191 | 1.192 | 0.961
CCCC(CCC)C(=O)OC1N=C(c2ccccc2)c2cc(Cl)ccc2NC1=O (stereo not drawn) | 5.25 | 0.503 |  | 
O=C1CN=C(c2ccccc2)c2cc(Cl)ccc2N1 [NORDAZEPAM] |  | 1.247 | 1.83 | 0.832
O=C1C(O)N=C(c2ccccc2F)c2cc(Cl)ccc2N1CCO (stereo not drawn) [DOXEFAZEPAM] | 1.36 | 2.239 | 1.648 | 1.697
O=C1CN=C(c2ccccc2Cl)c2cc([N+](=O)[O-])ccc2N1 [CLONAZEPAM] | 2.41 |  |  | 
O=C1C[N+]([O-])=C(c2ccccc2)c2cc(Cl)ccc2N1CCO | 0.44 | 0.346 |  | 
O=C1CN=C(c2ccccc2)c2cc([N+](=O)[O-])ccc2N1 [NITRAZEPAM] | 2.12 | 2.326 |  | 
CN1C(=O)CN=C(C2C=CCCC2)c2cc(Cl)ccc21 (stereo not drawn) | 2.76 |  |  | 
O=C1Nc2ccc(Cl)cc2C(c2ccccc2F)=NC1O (stereo not drawn) | 1.48 | 2.501 | 2.36 | 2.045
O=C1C(O)N=C(c2ccccc2)c2cc(Cl)ccc2N1CCCO (stereo not drawn) | 1.87 |  |  | 
O=C1C(O)N=C(c2ccccc2Cl)c2cc(Cl)ccc2N1CCO (stereo not drawn) | 1.94 | 2.005 | 1.959 | 1.711
O=C1CN=C(c2ccccc2F)c2cc(Cl)ccc2N1 | 2.15 | 2.046 | 2.284 | 1.825
CC(=O)OCCN1C(=O)C(OC(C)=O)N=C(c2ccccc2)c2cc(Cl)ccc21 (stereo not drawn) | 2.48 |  |  | 
CC(=O)OC1N=C(c2ccccc2)c2cc(Cl)ccc2N(CCO)C1=O (stereo not drawn) | 2.01 |  |  | 

Compound | logP [1] | Log 1/C (Rattus norvegicus [2]) | Log 1/C (Rattus norvegicus [3]) | Log 1/C (Rattus norvegicus [4])
O=C1C(O)N=C(c2ccccc2)c2cc([N+](=O)[O-])ccc2N1CCO (stereo not drawn) | 0.72 | 0.34 |  | 
O=C(O)CCC(=O)OCCN1C(=O)C[N+]([O-])=C(c2ccccc2)c2cc(Cl)ccc21 | 0.19 | 0.762 |  | 
CN1C(=O)C(O)N=C(c2ccccc2)c2cc(Cl)ccc21 (stereo not drawn) [TEMAZEPAM] |  | 1.629 | 1.883 | 1.228
CNC(=O)N1C(=O)CN=C(c2ccccc2)c2cc([N+](=O)[O-])ccc21 | 1.95 |  |  | 
O=C1CN=C(c2ccccc2)c2cc(Cl)ccc2N1CC(F)(F)F [HALAZEPAM] | 3.73 | 1.097 |  | 
O=C(O)CCC(=O)OC1N=C(c2ccccc2)c2cc(Cl)ccc2NC1=O (stereo not drawn) | 1.41 | 1.381 |  | 
CCN(CC)CCN1C(=O)CN=C(c2ccccc2F)c2cc(Cl)ccc21 [FLURAZEPAM] | 2.35 | 1.943 | 1.745 | 1.291
CN1C(=O)C(O)N=C(c2ccccc2F)c2cc(Cl)ccc21 (stereo not drawn) [FLUTEMAZEPAM] | 2 | 2.81 | 2.585 | 2.371
CNC1C[N+]([O-])=C(c2ccccc2)c2cc(Cl)ccc2N1 (stereo not drawn) | 2.5 | 1.628 | 1.578 | 1.277
O=C1CN=C(c2ccccc2)c2cc(Cl)ccc2N1CC1CC1 [PRAZEPAM] | 3.72 | 0.709 |  | 
CN1C(=O)CN=C(c2ccccc2)c2cc(Cl)ccc21 [DIAZEPAM] |  | 1.793 | 1.876 | 1.659
CN1C(=O)CN=C(c2ccccc2F)c2cc(Cl)ccc21 [FLUDIAZEPAM] | 2.67 | 2.598 | 2.721 | 2.417
CC(=O)OCCCN1C(=O)C(OC(C)=O)N=C(c2ccccc2)c2cc(Cl)ccc21 (stereo not drawn) | 3 |  |  | 
O=C1Nc2ccc(Cl)cc2C(c2ccccc2Cl)=NC1O (stereo not drawn) [LORAZEPAM] |  | 3.145 | 2.444 | 2.897
CN1CCN=C(c2ccccc2)c2cc(Cl)ccc21 [MEDAZEPAM] | 4.05 | 1.443 |  | 
CN1C(=O)CN=C(c2ccccc2Cl)c2cc(Cl)ccc21 | 3.25 | 2.409 | 2.824 | 2.409
O=C1CN=C(c2ccccc2Cl)c2cc(Cl)ccc2N1 [DELORAZEPAM] | 2.73 | 2.79 | 2.678 | 2.509
O=C1C(O)N=C(c2ccccc2)c2cc(Cl)ccc2N1CCO (stereo not drawn) | 1.35 | 0.797 | 0.361 | 0.42
CN1C(=O)C(O)N=C(c2ccccc2Cl)c2cc(Cl)ccc21 (stereo not drawn) [LORMETAZEPAM] | 2.58 | 2.594 | 2.658 | 2.394
CCOC1N=C(c2ccccc2)c2cc(Cl)ccc2N(CCO)C1=O (stereo not drawn) | 2.4 |  |  | 
